In patent US20040266886A1, “Cosmetic and/or pharmaceutical superfatting preparations” (priority 2001, published 2004):
Where two headings read alike, the source gives them in different places.

Legend:
[1] = tested on: pig's epidermis; conditions: pH 5.5
Protocol: (§1) Dermatological compatibility was evaluated by determining the transepidermal water loss (TEWL) in a pig's epidermis. To this end, defined pieces of skin were treated with the various test solutions for 30 minutes at 40° C. and the TEWL value was gravimetrically determined. The test solutions were mixtures of 17% by weight Plantapon® PS 10 (sodium lauryl ether sulfate and Lauryl Glycoside, Cognis Düsseldorf) with 1.5% by weight fatty acid partial glycerides (see Table 1) in preservative-containing water (WAS 10% by weight). The pH was adjusted to 5.5 with citric acid.

[2] = tested on: pig's epidermis; assay: Dermatological compatibility: transepidermal water loss (TEWL), gravimetric; conditions: for TEWL [%-rel] = [treated/untreated * 100] − 100%: […] by weight fatty acid partial glyceride in 17% by weight Plantapon PS 10, pH 5.5, skin treated 30 minutes at 40° C., lower value = better compatibility
Protocol: as §1

Compound | TEWL [%-rel] = [treated/untreated * 100] − 100% [1] | TEWL [%-rel] = [treated/untreated * 100] − 100% [2] | other results
Lauric acid mono/diglyceride (65:35) [Example 3] | 20.5 %-rel | – | –
Isostearic acid mono/diglyceride (65:35) [Example 7] | 22.0 %-rel | – | –
Isostearic acid monoglyceride (>90) [Example 8] | – | 18.5 %-rel | –
CCCCCCCCCCCC(=O)OCC(O)CO (centres unmarked) [Example 4, Lauric acid monoglyceride (>90)] | – | 10.5 %-rel | –
Glycerol monocaprylate (>90) [Example 2] | – | – | Transepidermal water loss / dermatological compatibility (in words) ([2]; compared with mixtures of 65% by weight monoglyceride and 35% by weight diglyceride): very good compatibility
